Results reported in patent US6379670B1, “Methods for treatment of multiple sclerosis using peptide analogs of human myelin basic protein” (Neurocrine Biosciences, Inc., priority 1994, dated 2002).
Non-standard residues stand in square brackets, D forms with d. No end group written: not given here.

Legend:
[1] = tested on: NBI-5788-reactive or MBP-reactive T cell lines from MS patients; test: Cross-reactivity of T cell lines (TCL) from MS patients, 3H-thymidine proliferation; format: cell-based, human
Method: To evaluate the degree of NBI-5788-specific reactivity induced by NBI-5788 treatment, we determined whether NBI-5788-reactive T cell lines generated from untreated or NBI-5788-treated patients cross-reacted with whole MBP or MBP peptide 83-99. T cell lines were generated from positive cultures in the frequency analysis by an additional cycle of co-culture with antigen. Specificity of positive lines was tested by culturing 2×10^4 T cells/well in triplicate with whole MBP, MBP83-99, NBI-5788 or medium alone in the presence of 10^5 APCs in a final volume of 200 μl/well. Two days later supernatants were pooled from replicate wells and frozen at −80° C. Wells were then pulsed with [^3H]-thymidine (1 μCi/well) for the final 18 hours of culture.

[2] = tested on: NBI-5788- or MBP-reactive TCL from MS patients; test: Cytokine secretion (IFN-γ, IL-5) by TCL from MS patients, ELISA; format: in vivo, human
Method: To more fully characterize the nature of the immune response generated following APL administration, proliferating NBI-5788- or MBP-reactive TCL were established from untreated or NBI-5788-treated MS patients. […] Levels of Th2 cytokine IL-5 and Th1 cytokine IFN-γ were measured in culture supernatants collected 48 hours after stimulation with the selecting antigen, either NBI-5788 or whole MBP. Cytokines produced by T cell lines were assayed by ELISA. To measure cytokine levels, a sandwich ELISA method was used as follows: Nunc Maxisorp microtiter plates (Nalge Nunc, Denmark) were coated with capture mAb (Pharmingen, San Diego, Calif.) at 2 μg/ml for IL-4, IL-10, IL-13 and IFN-γ or at 1 μg/ml for IL-5. The capture mAb was diluted with 0.1 M NaHCO3 dispensed on the plate and incubated at 4° C. overnight. Plates were then blocked for at least 30 minutes at RT with 1% BSA (Sigma, St. Louis, Mo.) for IL-4, IL-5, IL-10 and IL-13 or 1% casein (Sigma) for IFN-γ. Standards were serially diluted (1000-1 pg/ml for IL-4 and 4000-5.5 pg/ml for IL-5, IL-10, IL-13 and IFN-γ) in blocking buffer and added to the plate. Samples were diluted at least 1:2 in blocking buffer and added to the plate. The plates were incubated at room temperature for one hour. The plates were washed and the biotinylated detection mAb (Pharmingen) was added to the plates at 1 μg/ml for IL-5 and IFN-γ or 2 μg/ml for IL-4, L-10, and IL-13. The plates were incubated for 1.5 hours at RT. After washing the plates streptavidin-peroxidase (Pierce, Rockford, Ill.) was added at 1 μg/ml for IL-5, IL-10, and IL-13 or 2 μg/ml for IL-4 and IFN-γ. The plates were incubated for 20-30 minutes. After washing thoroughly, TMB (Calbiochem, San Diego, Calif.) was added and the color was allowed to develop. The reaction was stopped by 0.2N H2SO4 and absorbance at 450 nm was determined. The association between cytokine phenotype and NBI-5788 treatment was evaluated by χ^2 contingency analysis. Mean cytokine secretion levels were compared using MannWhitney U test for non-parametric data. Probability values≦0.05 were considered significant.

[3] = patient MS-1, dose 20 mg, TCL 4

Substance: MBP(83-99) (83E>a, 84N>K, 89F>L, and 91K>A) ([dA]KPVVHLFANIVTPRTP) [NBI-5788]
- whole MBP-reactive TCL from treated patients cross-reacting with NBI-5788 ([1]; 1 of 35 TCL): 2.9%
- NBI-5788-reactive TCL from treated patients cross-reacting with whole MBP ([1]; 1 of 43 TCL): 2.3%
- NBI-5788-reactive TCL from treated patients cross-reacting with both MBP83-99 and whole MBP ([1]; 2 of 43 TCL): 4.7%
- whole MBP-reactive TCL from treated patients cross-reacting with MBP83-99 and NBI-5788 ([1]; 3 of 35 TCL): 8.6%
- whole MBP-reactive TCL from treated patients cross-reacting with MBP-83-99 ([1]; 6 of 35 TCL): 17.1%
- NBI-5788-reactive TCL from treated patients cross-reacting with MBP83-99 ([1]; 12 of 43 TCL): 27.9%
- proliferative response of MBP-reactive TCL to antigen ([1]; patient MS-1, dose 20 mg, TCL 2): 6,090 ± 102
- proliferative response of MBP-reactive TCL to antigen [1, 3]: 4,164 ± 123
- proliferative response of NBI-5788-reactive TCL to antigen [1, 3]: 4,112 ± 349
- proliferative response of MBP-reactive TCL to antigen ([1]; patient MS-1, dose 20 mg, TCL 5): 3,115 ± 56
- proliferative response of MBP-reactive TCL to antigen ([1]; patient MS-1, dose 20 mg, TCL 10): 2,794 ± 152
- proliferative response of MBP-reactive TCL to antigen ([1]; patient MS-1, dose 20 mg, TCL 14): 15,780 ± 214
- proliferative response of MBP-reactive TCL to antigen ([1]; patient MS-1, dose 20 mg, TCL 26): 2,559 ± 74
- proliferative response of NBI-5788-reactive TCL to antigen ([1]; patient MS-1, dose 20 mg, TCL 36): 18,259 ± 2011
- proliferative response of MBP-reactive TCL to antigen ([1]; patient MS-1, dose 20 mg, TCL 45): 2,559 ± 637
- proliferative response of MBP-reactive TCL to antigen ([1]; patient MS-2, dose 20 mg, TCL 14): 2,566 ± 421
- proliferative response of MBP-reactive TCL to antigen ([1]; patient MS-3, Pretreat., TCL 9): 6,468 ± 586
- proliferative response of NBI-5788-reactive TCL to antigen ([1]; patient MS-3, dose 20 mg, TCL 2): 19,315 ± 1,310
- proliferative response of NBI-5788-reactive TCL to antigen ([1]; patient MS-3, dose 20 mg, TCL 4): 50,630 ± 11,709
- proliferative response of NBI-5788-reactive TCL to antigen ([1]; patient MS-3, dose 20 mg, TCL 18): 10,308 ± 1,283
- proliferative response of NBI-5788-reactive TCL to antigen ([1]; patient MS-3, dose 20 mg, TCL 30): 48,278 ± 1,070
- proliferative response of MBP-reactive TCL to antigen ([1]; patient MS-4, dose 20 mg, TCL 7): 7,492 ± 716
- proliferative response of NBI-5788-reactive TCL to antigen ([1]; patient MS-4, dose 20 mg, TCL 18): 26,017 ± 802
- proliferative response of NBI-5788-reactive TCL to antigen ([1]; patient MS-5, dose 20 mg, TCL 15): 32,597 ± 1,856
- proliferative response of NBI-5788-reactive TCL to antigen ([1]; patient MS-5, dose 20 mg, TCL 39): 24,326 ± 3,724
- proliferative response of NBI-5788-reactive TCL to antigen ([1]; patient MS-5, dose 20 mg, TCL 43): 16,726 ± 1,121
- proliferative response of NBI-5788-reactive TCL to antigen ([1]; patient MS-6, dose 10 mg, TCL 22): 43,085 ± 1,376
- proliferative response of NBI-5788-reactive TCL to antigen ([1]; patient MS-6, dose 10 mg, TCL 38): 24,195 ± 613
- proliferative response of NBI-5788-reactive TCL to antigen ([1]; patient MS-7, dose 5 mg, TCL 12): 17,749 ± 1,784
- proliferative response of NBI-5788-reactive TCL to antigen ([1]; patient MS-7, dose 5 mg, TCL 28): 3,505 ± 1,446
- proliferative response of MBP-reactive TCL to antigen ([1]; patient MS-7, dose 5 mg, TCL 46): 1,298 ± 113
- proliferative response of MBP-reactive TCL to antigen ([1]; patient MS-8, Placebo, TCL 26): 944 ± 259
- proliferative response of MBP-reactive TCL to antigen ([1]; patient MS-8, Placebo, TCL 28): 1,437 ± 97
- proliferative response of MBP-reactive TCL to antigen ([1]; patient MS-8, Placebo, TCL 38): 16,931 ± 1938
- proliferative response of MBP-reactive TCL to antigen ([1]; patient MS-8, Pretreat., TCL 22): 2,636 ± 270
- proliferative response of MBP-reactive TCL to antigen ([1]; patient MS-8, Pretreat., TCL 31): 936 ± 123
- proliferative response of MBP-reactive TCL to antigen ([1]; patient MS-8, Pretreat., TCL 47): 3,448 ± 1,980
- MBP-reactive TCL from APL-treated MS patients that secreted more IL-5 than IFN-γ ([2]; 13 of 23 TCL): 56%
- APL-reactive TCL from APL-treated MS patients that secreted more IL-5 than IFN-γ ([2]; 19 of 32 TCL): 59%
- change of mean IFN-γ secretion of MBP-reactive and APL-reactive T cell lines, APL-treated compared to non-treated MS patients ([2]; FIGS. 31A and 31B): significant (p<0.05) decrease
- cytokine phenotype of NBI-5788-reactive TCL from APL-treated versus untreated MS patients ([2]; secreting more IL-5 than IFN-γ): more Th2-like
- change of mean IL-5 secretion of TCL, APL-treated compared to non-treated MS patients ([2]; significant (p<0.05) for APL-reactive TCL, but not for MBP-reactive TCL): concomitant increase
